Data set [1] has as its target Serine/threonine-protein kinase 38 (Homo sapiens) (UniProt Q15208). The data set can be described thus: Inhibition of human STK38/NDR1 using KKRNRRLSVA as substrate at 1 uM in presence of 32P-ATP by Hotspot assay relative to control; values are per cent of control.
In data set [2] the target is Serine/threonine-protein kinase mTOR (Homo sapiens) (UniProt P42345). The data set can be described thus: Inhibition of human mTOR/FRAP1 using at 1 uM in presence of 32P-ATP by Hotspot assay relative to control.
The subject of data set [3] is L929. Kind of data set: Inhibition of TLR-3 induced necroptosis in mouse L929 cells assessed as increase in cell viability upto 10 uM incubated for 18 hrs in presence of poly(I:C) and zVAD by Cell Titer-Glo luminescent cell viability assay. It is filed as functional, cell-based.
Data set [4] relates to SVEC4-10. Kind of data set: Inhibition of DAI-induced necroptosis in wildtype MCMV infected mouse SVEC4-10 cells assessed as increase in cell viability at 10 uM incubated for 18 hrs by Cell Titer-Glo luminescent cell viability assay. It is filed as functional, cell-based.
The subject of data set [5] is SVEC4-10. The data set can be described thus: Inhibition of DAI-induced necroptosis in wildtype MCMV infected mouse SVEC4-10 cells assessed as increase in cell viability at 10 uM incubated for 18 hrs in presence of zVAD by Cell Titer-Glo luminescent cell viability assay. Type of data set: functional, cell-based.
The subject of data set [6] is 3T3SA. Kind of data set: Induction of apoptosis in mouse 3T3SA cells assessed as cell death by measuring percent of PI positive cells incubated for 3 hrs by PI staining based flow cytometric analysis (reference value: 10.7%). It is filed as toxicity.
The test system of data set [7] is 3T3SA. The data set can be described thus: Induction of apoptosis in mouse 3T3SA cells assessed as cell death by measuring percent of PI positive cells incubated for 8 hrs by PI staining based flow cytometric analysis (reference value: 11.4%). Type of data set: toxicity.
Data set [8] has as its system 3T3SA. Kind of data set: Induction of apoptosis in mouse 3T3SA cells assessed as cell death by measuring percent of PI positive cells incubated for 8 hrs in presence of zVAD by PI staining based flow cytometric analysis (reference value: 11.4%). Type of data set: toxicity.
The subject of data set [9] is 3T3SA. The data set can be described thus: Induction of apoptosis in mouse 3T3SA cells assessed as accumulation of cleaved caspase-3 measured after 1.5 to 2.5 hrs by immunoblot analysis. Type of data set: toxicity, cell-based. The following applies: time 1.5-2.5 hrs.
Data set [10] relates to 3T3SA. The data set can be described thus: Induction of apoptosis in mouse 3T3SA cells assessed as accumulation of cleaved caspase-3 by measuring percentage of cleaved caspase-3 positive cells measured after 2.5 hrs by immunoblot analysis (reference value: 4%). It is filed as toxicity, cell-based.
The subject of data set [11] is 3T3SA. Kind of data set: Induction of apoptosis in mouse 3T3SA cells assessed as accumulation of cleaved caspase-3 by measuring percentage of cleaved caspase-3 positive cells measured after 2.5 hrs in presence of zVAD by immunoblot analysis (reference value: 4%). It is filed as toxicity, cell-based.
Data set [12] concerns 3T3SA. Kind of data set: Induction of apoptosis in mouse 3T3SA cells transfected with RIP3 shRNA assessed as increase in caspase3/7 proteolytic activity incubated for 4 hrs. Type of data set: toxicity, cell-based.
Data set [13] has as its system 3T3SA. The data set can be described thus: Induction of apoptosis in mouse 3T3SA cells incubated for 18 hrs in presence of zIETD by Cell Titer-Glo luminescent cell viability assay. Type of data set: toxicity, cell-based.
The test system of data set [14] is 3T3SA. The data set can be described thus: Induction of apoptosis in mouse 3T3SA cells incubated for 18 hrs in presence of BHA by Cell Titer-Glo luminescent cell viability assay. Type of data set: toxicity, cell-based.
Data set [15] deals with 3T3SA. Kind of data set: Induction of apoptosis in mouse 3T3SA cells assessed as cleaved caspase 8 accumulation incubated for 2.5 hrs by immunoblot analysis. It is filed as toxicity, cell-based.
Data set [16] has as its system 3T3SA. The data set can be described thus: Induction of apoptosis in mouse 3T3SA cells transfected with Caspase8 siRNA incubated for 2.5 hrs by Cell Titer-Glo luminescent cell viability assay. Type of data set: toxicity, cell-based.
Data set [17] has as its system 3T3SA. The data set can be described thus: Induction of apoptosis in mouse 3T3SA cells transfected with RIP1 siRNA assessed as accumulation of cleaved caspase 3 incubated for 0.5 to 1.5 hrs by immunoblot analysis. Type of data set: toxicity, cell-based. The following applies: time 0.5-1.5 hrs.
Data set [18] relates to 3T3SA. Kind of data set: Induction of apoptosis in mouse 3T3SA cells transfected with RIP1 siRNA assessed as accumulation of cleaved caspase 8 incubated for 0.5 to 1.5 hrs by immunoblot analysis. Type of data set: toxicity, cell-based. As to conditions: time 0.5-1.5 hrs.
The subject of data set [19] is MEF. Kind of data set: Induction of apoptosis in RIP-/- MEF cells incubated for 18 hrs by Cell Titer-Glo luminescent cell viability assay. It is filed as toxicity, cell-based. The following applies: mouse.
Data set [20] relates to MEF. The data set can be described thus: Induction of apoptosis in […] MEF cells incubated for 18 hrs by Cell Titer-Glo luminescent cell viability assay. Type of data set: toxicity, cell-based. The following applies: mouse.
The test system of data set [21] is SVEC4-10. Kind of data set: Induction of apoptosis in mouse SVEC4-10 cells transfected with M45mutRHIM incubated for 18 hrs by Cell Titer-Glo luminescent cell viability assay. Type of data set: toxicity, cell-based. As to conditions: svec4-10, 18 h.
Data set [22] has as its system 3T3SA. Kind of data set: Induction of apoptosis in mouse 3T3SA cells incubated for 18 hrs in presence of BMS-345541 by Cell Titer-Glo luminescent cell viability assay. Type of data set: toxicity, cell-based.
For data set [23], the system named is MEF. Kind of data set: Induction of apoptosis in RIP3-/- MEF cells transfected with RIP3 K51A mutant incubated for 18 hrs by Cell Titer-Glo luminescent cell viability assay. As to conditions: mouse. It is filed as toxicity, cell-based.
Data set [24] has as its system 3T3SA. The data set can be described thus: Induction of apoptosis in RIP3shRNA transfected mouse 3T3SA cells co-transfected with shRNA-resistant RIP3 pre-tranfected for 16 hrs followed by compound addition and measured after 18 hrs in presence of zVAD by Cell Titer-Glo luminescent cell viability assay. Type of data set: toxicity, cell-based.
Data set [25] has as its system 3T3SA. The data set can be described thus: Induction of apoptosis in RIP3shRNA transfected mouse 3T3SA cells co-transfected with shRNA-resistant RIP3 D161N mutant pre-tranfected for 16 hrs followed by compound addition and measured after 18 hrs in presence of zVAD by Cell Titer-Glo luminescent cell viability assay. It is filed as toxicity, cell-based.
For data set [26], the system named is 3T3SA. Kind of data set: Induction of apoptosis in RIP3shRNA transfected mouse 3T3SA cells co-transfected with shRNA-resistant RIP3 mutRHIM pre-tranfected for 16 hrs followed by compound addition and measured after 18 hrs in presence of zVAD by Cell Titer-Glo luminescent cell viability assay. It is filed as toxicity, cell-based.
Data set [27] concerns 3T3SA. Kind of data set: Induction of apoptosis in vICA expression plasmid transfected mouse 3T3SA cells co-transfected with shRNA-resistant RIP3 incubated for 12 hrs by Cell Titer-Glo luminescent cell viability assay. It is filed as toxicity, cell-based.
The subject of data set [28] is 3T3SA. The data set can be described thus: Induction of apoptosis in vICA expression plasmid transfected mouse 3T3SA cells co-transfected with shRNA-resistant RIP3 D161G mutant incubated for 12 hrs by Cell Titer-Glo luminescent cell viability assay. It is filed as toxicity, cell-based.
Data set [29] has as its system 3T3SA. The data set can be described thus: Induction of apoptosis in vICA expression plasmid transfected mouse 3T3SA cells co-transfected with shRNA-resistant RIP3 mutRHIM incubated for 12 hrs by Cell Titer-Glo luminescent cell viability assay. Type of data set: toxicity, cell-based.
For data set [30], the system named is MEF. Kind of data set: Induction of apoptosis in RIP3-/- MEF cells expressing dox-induced RIP3 K51A mutant assessed as RIP1-RIP3 association incubated for 1 hrs by immunoblot analysis. Type of data set: toxicity, cell-based. As to conditions: mouse.
The test system of data set [31] is 3T3SA. The data set can be described thus: Induction of apoptosis in RIP3 shRNA transfected mouse 3T3SA cells co-transfected with shRNA resistant RIP3 assessed as accumulation of wildtype RIP3 in pellet incubated for 3 hrs in presence of zVAD by immunoblot analysis. Type of data set: toxicity, cell-based.
Data set [32] deals with 3T3SA. Kind of data set: Induction of apoptosis in RIP3 shRNA transfected mouse 3T3SA cells co-transfected with shRNA resistant RIP3 D161G mutant assessed as accumulation of FLAG-tagged RIP3 D161G mutant in pellet incubated for 3 hrs in presence of zVAD by immunoblot analysis. Type of data set: toxicity, cell-based.
Data set [33] has as its system MEF. Kind of data set: Induction of apoptosis in MEF cells expressing wildtype RIP3 incubated for 18 hrs by Cell Titer-Glo luminescent cell viability assay. Type of data set: toxicity, cell-based. As to conditions: mouse.

Activity calls are given as the source filed them. The calls are words filed in the database; no cut-off is given here.

Chain of Serine/threonine-protein kinase 38 (Homo sapiens) (Q15208 2-465 limits assumed): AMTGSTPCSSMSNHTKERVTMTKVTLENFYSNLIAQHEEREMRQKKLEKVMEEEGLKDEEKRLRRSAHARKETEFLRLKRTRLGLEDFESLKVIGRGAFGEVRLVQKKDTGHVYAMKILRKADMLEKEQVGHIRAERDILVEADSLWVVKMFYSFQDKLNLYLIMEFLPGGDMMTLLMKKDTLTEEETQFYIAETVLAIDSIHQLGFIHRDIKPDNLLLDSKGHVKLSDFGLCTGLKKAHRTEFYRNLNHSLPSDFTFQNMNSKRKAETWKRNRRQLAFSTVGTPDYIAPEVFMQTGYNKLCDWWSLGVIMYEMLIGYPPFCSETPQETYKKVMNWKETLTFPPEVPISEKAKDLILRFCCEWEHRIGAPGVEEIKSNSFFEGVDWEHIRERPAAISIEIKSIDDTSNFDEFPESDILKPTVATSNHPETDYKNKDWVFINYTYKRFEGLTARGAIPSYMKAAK

Consider `CNC(=O)c1ccc2c(c1)ncn2-c1ccc(CC(=O)OC(C)(C)C)cc1`, for which the residual activity in data set [1] worked out at 96.4%.

Consider `Cc1cc(-c2cnc(N)c3c(-c4ccc5scnc5c4)csc23)n(C)n1`, for which the inhibition in [2] was found to be 60.8%.

For the compound `CC(C)S(=O)(=O)c1ccc2nccc(Nc3ccc4scnc4c3)c2c1`, the inhibition result in [3] and in data set [5] was “Active” each time. Moreover, the inhibition entry in data set [4] was “inactive”. Also, the Activity in data set [6] is 24%; in data set [7] it was 62%; in data set [8], 11%; in data set [9], “Toxic”; in [10], 29%; in data set [11] it was 3%. In addition, the Activity entry is listed as “Non-Toxic” in data set [12]; “Non-Toxic” in data set [13]; “Toxic” in [14]; “Toxic” in data set [15]; “Non-Toxic” in data set [16]; “Non-Toxic” in [17]. Also, the Activity result in data set [18] is “Non-Toxic”; in data set [19] it was “Non-Toxic”; in data set [20], “Non-Toxic”; in data set [21], “Toxic”; in data set [22] it was “Toxic”; in data set [23], “Toxic”. Also, the Activity result in data set [24], in data set [25], in [26], in data set [27], in data set [28] and in [29] was “Non-Toxic” each time. The Activity result in [30], in [31], in [32] and in data set [33] was “Toxic” each time.

Source of the values: ChEMBL document CHEMBL5649166, “RIP3 induces apoptosis independent of pronecrotic kinase activity” (Mol Cell, 2014).
